Values quoted from earlier work as cited in US20250228918A1, “METHODS OF CONTROLLING BODY WEIGHT AND/OR ENERGY EXPENDITURE” (Yale University, priority 2022, published 2025).

Details: in vivo

## C[C@H]1Oc2cc(cnc2N)-c2c(nn(C)c2C#N)CN(C)C(=O)c2ccc(F)cc21 [Lorlatinib]
  brain penetration: penetrates well into brain
